From article PMC2568864, “Chemical Dissection of the Link between Streptozotocin, O-GlcNAc, and Pancreatic Cell Death” (Chemistry & Biology, 2008)

Target: T1, human O-GlcNAcase (hOGA) (Homo sapiens, UniProt O60502)
T1 construct: gene OGA; residues 53–916, GST fusion
T1 sequence (O60502 53-916): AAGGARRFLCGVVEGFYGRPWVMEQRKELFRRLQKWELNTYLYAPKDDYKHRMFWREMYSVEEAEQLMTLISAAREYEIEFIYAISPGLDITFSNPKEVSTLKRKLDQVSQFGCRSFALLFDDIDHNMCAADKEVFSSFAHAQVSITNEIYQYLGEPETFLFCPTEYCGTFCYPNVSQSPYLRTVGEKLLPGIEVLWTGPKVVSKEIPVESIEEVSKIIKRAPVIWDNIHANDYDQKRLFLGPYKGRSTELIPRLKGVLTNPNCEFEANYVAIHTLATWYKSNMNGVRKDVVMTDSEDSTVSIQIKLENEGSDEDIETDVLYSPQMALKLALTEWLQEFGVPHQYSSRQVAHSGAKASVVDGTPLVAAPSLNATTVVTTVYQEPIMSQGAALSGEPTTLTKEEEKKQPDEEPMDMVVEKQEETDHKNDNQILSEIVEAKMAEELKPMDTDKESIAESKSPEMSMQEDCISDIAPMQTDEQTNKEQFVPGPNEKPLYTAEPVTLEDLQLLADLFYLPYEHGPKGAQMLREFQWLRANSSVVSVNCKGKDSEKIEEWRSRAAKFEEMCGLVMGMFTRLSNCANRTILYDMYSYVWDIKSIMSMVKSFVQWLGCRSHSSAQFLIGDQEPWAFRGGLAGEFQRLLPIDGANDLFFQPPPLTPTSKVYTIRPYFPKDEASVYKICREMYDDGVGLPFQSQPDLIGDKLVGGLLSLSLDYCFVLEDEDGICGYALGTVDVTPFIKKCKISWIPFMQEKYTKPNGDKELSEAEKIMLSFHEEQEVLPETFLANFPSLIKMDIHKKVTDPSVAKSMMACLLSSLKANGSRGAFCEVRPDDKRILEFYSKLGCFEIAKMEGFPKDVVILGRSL
Test: steady-state kinetics with fluorogenic 4MU-GlcNAc, Lineweaver-Burk, competitive inhibition fit
Assay type: biochemical

CN(N=O)C(=O)N[C@H]1C(O)O[C@H](CO)[C@@H](O)[C@@H]1O (stereo partly shown) [STZ, streptozotocin]
Ki: 64 ± 3 µM
